The values below come from PMC10388311, “Innovative Strategy toward Mutant CFTR Rescue in Cystic Fibrosis: Design and Synthesis of Thiadiazole Inhibitors of the E3 Ligase RNF5” (Journal of Medicinal Chemistry, 2023).

Experiment [1] addresses T1, recombinant truncated RNF5 (aa 1–117) (Homo sapiens, UniProt Q99942).
T1 construct: human RNF5 protein (aa 1–117) truncated to exclude the transmembrane domains; GST (followed by TEV protease site) (N, cleaved yes); host or cells: Escherichia coli BL21(DE3)
The experiment is described as follows: MicroScale Thermophoresis (MST) binding check. Particulars: RED-NHS labeled RNF5 (aa 1–117); compound at maximum concentration allowed by solubility (12: 100 M [sic]). The source says: The bindings of compounds 12, 40, and 42 were initially evaluated by MicroScale Thermophoresis (MST) using a purified recombinant truncated form of RNF5 (aa 1–117), lacking the C-terminal transmembrane domains. The protein was covalently labeled with a red dye (NHS) on the primary amines (lysine residues). […] NMR experiments on the recombinant RNF5 form were further performed to test the direct binding of the three compounds to the protein with a more sensitive, label-free, independent approach. Analogs 12, 40, and 42 were tested at 50 μM in the absence and in the presence of 3 μM RNF5 (1–117) protein. […] Indeed, for all three compounds, the NMR signals of their methyls are present in the STD spectra, and in the WaterLOGSY spectra, their signals change from negative to positive in the presence of the protein, indisputably highlighting the formation of compound–protein binding events. […] It has to be noted that NMR is a very sensitive technique that allows detecting also compounds weakly binding to their target protein independent of the possible downstream biological effects. Indeed, we can speculate that compounds 40 and 42 may bind to RNF5 without inhibiting its ubiquitin ligase activity, thus not leading to mutant CFTR rescue. These compounds could even act as RNF5 activators, similar to analog-1.
A construct coding for human RNF5 protein (aa 1–117) truncated to exclude the transmembrane domains, with an N-terminal GST-tag followed by the recognition site for TEV protease (pET vector backbone), was purchased from CliniSciences. A similar construct was recently described in the work of Ruan et al.[44] […]
Purified RNF5 was labeled using a Monolith protein labeling kit RED-NHS 2nd generation (NanoTemper Technologies, München, Germany) following manufacturer’s instructions. Labeled protein (5 nM) was first tested in a pre-test assay for optimal fluorescence, absence of aggregation, and sticking to capillaries using MST buffer [PBS, 0.05% Tween-20, 0.1% PEG-8000, 1 μM ZnCl2] with or without 1 mM DTT. […]
(In general: MST reads how a fluorescent partner responds to local heating, with and without ligand.)

Experiment [2] addresses F508del-CFTR in CFBE41o– cells (Homo sapiens, UniProt Q99942). The experiment is described as follows: HS-YFP microfluorimetric assay of F508del-CFTR rescue (corrector activity). Particulars: for F508del-CFTR corrector activity compared with inh-2 (CFTR activity, primary screen): CFBE41o– cells co-expressing F508del-CFTR and HS-YFP, 24 h treatment, Figure 5; for improvement of the rescue elicited by the double combination VX-661 + VX-445 / mutant CFTR activity upon co-treatment with VX-809 or VX-445: RNF5 inhibitor 5 μM; for improvement of the rescue elicited by the double combination VX-661 + VX-445: VX-661 + VX-445 10 μM + 3 μM; for mutant CFTR activity upon co-treatment with VX-809 or VX-445: VX-809 3 μM, VX-445 3 μM. The class given is cell-based. In outline: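 CFBE41o– cells stably co-expressing F508del-CFTR and HS-YFP were treated with compounds 24 h after seeding; VX-809 (1 μM) served as positive control. F508del-CFTR was stimulated with forskolin (20 μM) plus VX-770 (1 μM) for 25 min before iodide injection. I– influx rate was taken as initial slope (dF/dt) from an exponential fit of YFP quenching.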

Molecules are shown by their SMILES. “Also recorded” adds a separate entry of the source.

Chain of F508del-CFTR in CFBE41o– cells (Q99942 2-180): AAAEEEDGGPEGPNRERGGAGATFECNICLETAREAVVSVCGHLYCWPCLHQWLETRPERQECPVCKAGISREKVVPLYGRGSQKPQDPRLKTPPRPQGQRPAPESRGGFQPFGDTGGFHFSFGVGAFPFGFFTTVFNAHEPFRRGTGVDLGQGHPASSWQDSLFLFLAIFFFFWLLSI
Chain of F508del-CFTR in CFBE41o– cells (P13569 with tags, fused parts or gaps DEL508-508 partner): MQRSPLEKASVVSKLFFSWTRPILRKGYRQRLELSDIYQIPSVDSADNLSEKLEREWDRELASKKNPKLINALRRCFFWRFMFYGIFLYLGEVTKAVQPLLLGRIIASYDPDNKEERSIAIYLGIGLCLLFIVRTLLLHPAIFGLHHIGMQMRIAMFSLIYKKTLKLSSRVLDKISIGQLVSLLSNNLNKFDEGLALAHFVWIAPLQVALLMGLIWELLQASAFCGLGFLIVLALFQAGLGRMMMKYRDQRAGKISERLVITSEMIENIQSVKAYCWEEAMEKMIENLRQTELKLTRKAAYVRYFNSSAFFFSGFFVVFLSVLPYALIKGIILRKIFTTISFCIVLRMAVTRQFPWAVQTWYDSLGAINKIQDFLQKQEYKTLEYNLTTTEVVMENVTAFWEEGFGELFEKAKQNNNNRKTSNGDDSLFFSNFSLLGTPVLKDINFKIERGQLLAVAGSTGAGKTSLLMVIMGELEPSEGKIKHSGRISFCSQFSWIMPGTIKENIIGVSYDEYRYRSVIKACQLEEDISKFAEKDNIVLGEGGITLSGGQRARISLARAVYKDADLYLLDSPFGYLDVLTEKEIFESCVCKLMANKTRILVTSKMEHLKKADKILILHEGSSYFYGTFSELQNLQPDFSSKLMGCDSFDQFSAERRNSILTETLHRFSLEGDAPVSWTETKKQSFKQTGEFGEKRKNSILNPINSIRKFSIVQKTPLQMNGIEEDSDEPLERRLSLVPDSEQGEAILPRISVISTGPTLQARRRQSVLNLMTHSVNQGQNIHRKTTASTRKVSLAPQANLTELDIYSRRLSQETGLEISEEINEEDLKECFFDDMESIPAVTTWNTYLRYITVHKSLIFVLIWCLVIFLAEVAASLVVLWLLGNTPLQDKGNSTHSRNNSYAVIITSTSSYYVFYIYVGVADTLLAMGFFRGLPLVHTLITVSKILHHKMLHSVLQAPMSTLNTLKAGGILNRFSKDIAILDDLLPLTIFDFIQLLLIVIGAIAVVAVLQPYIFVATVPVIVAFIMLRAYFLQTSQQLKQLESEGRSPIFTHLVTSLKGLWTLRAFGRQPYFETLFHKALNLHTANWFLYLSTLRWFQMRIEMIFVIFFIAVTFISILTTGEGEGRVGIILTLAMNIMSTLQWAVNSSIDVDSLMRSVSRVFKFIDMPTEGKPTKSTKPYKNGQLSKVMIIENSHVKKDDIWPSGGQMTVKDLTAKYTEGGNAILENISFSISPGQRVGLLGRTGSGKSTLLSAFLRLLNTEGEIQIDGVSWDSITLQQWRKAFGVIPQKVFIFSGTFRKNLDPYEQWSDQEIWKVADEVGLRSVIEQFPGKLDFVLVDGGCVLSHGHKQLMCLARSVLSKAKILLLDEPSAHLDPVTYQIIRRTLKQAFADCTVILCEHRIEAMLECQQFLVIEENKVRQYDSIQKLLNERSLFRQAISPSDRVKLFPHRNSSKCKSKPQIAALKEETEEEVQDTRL
T1 sequence (Q99942 1-117): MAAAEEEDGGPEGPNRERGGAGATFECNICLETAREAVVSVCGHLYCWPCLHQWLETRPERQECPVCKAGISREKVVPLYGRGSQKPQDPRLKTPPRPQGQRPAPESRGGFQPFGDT

For the compound `Cc1ns/c(=N\C(=N\c2ccccc2)c2ccccc2)n1Cc1ccc(C(=O)O)cc1` [Compound 12, 4-(((Z)-3-Methyl-5-(((E)-phenyl(phenylimino)methyl)imino)-1,2,4-thiadiazol-4(5H)-yl)methyl)benzoic Acid], in experiment [1], the “direct binding to RNF5 by MST (binding check)” value (“direct binding to RNF5 by MST” for short) is given as “compound 12 is binding to RNF5; also recorded: evidence of direct binding”. In experiment [2], the “F508del-CFTR corrector activity compared with inh-2 (CFTR activity, primary screen)” value is “reduced potency; also recorded: lower F508del-CFTR activity compared to inh-2”.

Take `COc1cccc(Cn2c(C)ns/c2=N\C(=N\c2ccccc2)c2ccccc2)c1` [Compound 16, (E)-N-((Z)-4-(3-Methoxybenzyl)-3-methyl-1,2,4-thiadiazol-5(4H)-ylidene)-N′-phenylbenzimidamide]: the “F508del-CFTR corrector activity compared with inh-2 (CFTR activity, primary screen)” value in experiment [2] is “increased activity; also recorded: greater F508del-CFTR rescue than inh-2”. Further, the “F508del-CFTR activity in cells transfected with NT or RNF5 siRNA” value in experiment [2] (CFBE41o– cells, 16 5 μM alone or combined with VX-661 + VX-445 (10 μM + 3 μM), 24 h) is “increased the F508del-CFTR activity only in cells transfected with NT siRNA, but not in those transfected with RNF5 siRNA”. In addition, in experiment [2] (CFBE41o– cells, 24 h), the “improvement of the rescue elicited by the double combination VX-661 + VX-445” value is “able to further improve the rescue” and the “mutant CFTR activity upon co-treatment with VX-809 or VX-445” value is “significantly increased mutant CFTR activity”.

As for `Cc1ns/c(=N\C(=N\c2ccncc2)c2ccccc2)n1Cc1ccccc1` [Compound 40, (E)-N-((Z)-4-Benzyl-3-methyl-1,2,4-thiadiazol-5(4H)-ylidene)-N′-(pyridin-4-yl)benzimidamide], the “direct binding to RNF5 by MST” value in experiment [1] is on record as “observed only for compound 12”. For the same compound, the “F508del-CFTR corrector activity compared with inh-2 (CFTR activity, primary screen)” value in experiment [2] is “inactive analogs; also recorded: almost inactive as CFTR correctors”.

As to `Cc1ns/c(=N\c2ccccn2)n1Cc1ccccc1` [Compound 42, (Z)-4-Benzyl-3-methyl-N-(pyridin-2-yl)-1,2,4-thiadiazol-5(4H)-imine], in experiment [1], the “direct binding to RNF5 by MST” value is reported as “observed only for compound 12”. In addition, the “F508del-CFTR corrector activity compared with inh-2 (CFTR activity, primary screen)” value in experiment [2] was “inactive compounds; also recorded: almost inactive as CFTR correctors”.

On to `Cc1ns/c(=N\C(=N\c2ccccc2)c2ccccc2)n1Cc1ccccc1` [inh-2, reference compound], for which, in experiment [2] (CFBE41o– cells, 24 h), the “improvement of the rescue elicited by the double combination VX-661 + VX-445” value is reported as “only analogue 16 was able to further improve the rescue” and the “mutant CFTR activity upon co-treatment with VX-809 or VX-445” value is given as “significantly increased mutant CFTR activity”.
